The values below come from paper PMC8509676, “Residual Helicity at the Active Site of the Histidine Phosphocarrier, HPr, Modulates Binding Affinity to Its Natural Partners” (International Journal of Molecular Sciences, 2021).

In series [1] the target is EIN^sc (N-terminal domain of EI^sc) (Streptomyces coelicolor, UniProt Q9KZP1). Put plainly: biochemical. Type of series: binding. On the procedure: (§1) The experimental set-up and data processing of ITC experiments has been described previously. Rsd^ec or EIN^sc (at 10–20 µM) were injected into the cell, and the peptides in the syringe (100–200 µM) in 50 mM of Tris buffer, pH 7.0. The temperature for all the experiments was 25 °C. Typically, each calorimetric titration consisted of performing 19 injections with 2 μL volume, with a time spacing of 150 s, while stirring at 750 rpm in an Auto-iTC200 high-sensitivity microcalorimeter (MicroCal, Malvern-Panalytical, Malvern, UK). The results were analysed by applying a model that considered a single binding site (assuming a 1:1 stoichiometry) for the peptide/EIN^sc or peptide/Rsd^ec interaction using a nonlinear least-squares regression analysis in Origin 7.0 (OriginLab, Northampton, MA, USA) with user-defined fitting routines.
Sequence of EIN^sc (N-terminal domain of EI^sc) (Q9KZP1 1-230): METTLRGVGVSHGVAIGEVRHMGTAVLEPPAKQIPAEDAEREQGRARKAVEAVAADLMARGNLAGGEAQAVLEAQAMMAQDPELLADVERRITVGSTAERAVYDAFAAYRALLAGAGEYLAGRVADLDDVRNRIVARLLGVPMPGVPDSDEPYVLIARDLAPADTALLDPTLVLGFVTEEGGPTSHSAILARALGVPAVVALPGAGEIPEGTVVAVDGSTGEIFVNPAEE

The target of series [2] is T1, Rsd^ec (Escherichia coli, UniProt P0AFX4).
T1 construct: His-tag; made in house; host or cells: E. coli C41
T1 sequence (P0AFX4 whole entry): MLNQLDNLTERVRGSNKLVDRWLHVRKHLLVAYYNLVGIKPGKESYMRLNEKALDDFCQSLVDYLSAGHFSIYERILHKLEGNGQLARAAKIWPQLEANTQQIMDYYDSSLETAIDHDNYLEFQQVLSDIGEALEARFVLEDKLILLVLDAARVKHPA
The experiment in a line: Isothermal titration calorimetry (ITC), peptide/Rsd^ec binding. To be noted: ITC, 25 °C, 50 mM Tris pH 7.0. As for the experimental part: as §1
On the technique in general: ITC needs no label: the signal is the heat of the interaction.

For series [3] the following is noted: aqueous solution; cited from earlier work. The source says: Streptomyces is an actinomycete, Gram-positive organism with high content of G + C base pairs in its genome. We have carried out an extensive description of the structures and conformational stabilities of HPr^sc (O50515) and EI (EI^sc) (Q9KZP1) to understand their binding in the PTS cascade. We have also characterized the interaction of EI^sc with wild-type HPr^sc and that of the phosphorylated species, as well as that of the N-terminal domain of EI^sc (EIN^sc) with intact HPr^sc. We have also shown that the peptide comprising residues Ala9-Gly3 ...

Another series has as its target EIN^sc (Streptomyces coelicolor, UniProt Q9KZP1). The experiment in a line: biochemical. Type of series: binding. As for the experimental part: (§2) Spectra were collected at 25 °C on a Cary spectrofluorometer (Agilent, Madrid, Spain), with a Peltier temperature controller. The samples were prepared the day before and left overnight at 5 °C. Before measurements, the samples were incubated for 1 h at 25 °C. A quartz cell with a 1 cm path length (Hellma, Kruibeke, Belgium) was used. In all the experiments, the slit widths were equal to 5 nm for both the excitation and emission lights. Protein samples were excited at either 280 or 295 nm. The experiments were performed between 300 and 400 nm. The signal was acquired for 1 s, and the increment of wavelength was set to 1 nm. Appropriate blank corrections were made in all spectra. For the binding experiments, 3 µM of either protein (Rsd^ec or EIN^sc) and 15 µM of the corresponding peptide were mixed. The experiments in aqueous solution were acquired in Tris buffer (50 mM, pH 7.0).
(§3) For the titration between either of the two proteins (Rsd^ec or EIN^sc) and the corresponding peptide, increasing amounts of the latter, in a concentration range of 0 to 30 µM, were added to a solution with a fixed concentration of each protein (3 µM). The experimental set-up was identical to that described above, including preparation of the samples the day before and their storage overnight at 5 °C. Before measurements, the samples were incubated for 1 h at 25 °C. The fluorescence of a blank solution containing only the corresponding peptide was subtracted for each data point. […] The Kd was determined by following the fluorescence at selected wavelengths and fitting experimental data to Equation (1). […] At all used concentrations, the fluorescence was corrected by the inner-filter effects.

A short description of series [4]: Far-UV CD, helicity from molar ellipticity at 222 nm. To be noted: 5 °C. In kind it is physicochemical. As for the experimental part: Spectra were collected on a Jasco J810 spectropolarimeter (Jasco, Tokyo, Japan) interfaced with a Peltier unit. Far-UV measurements were performed with samples placed in quartz cells with a 0.1 cm path length (Hellma, Kruibeke, Belgium), with a response time of 2 s, a band width of 1 nm, and a scan velocity of 50 nm/min. For all peptides, a wide range of concentrations (10–50 µM) was used to determine whether either the shape or the intensity of the spectra was concentration-dependent. None of those features changed in the concentration range explored. The experiments in aqueous solution were acquired at 5 °C in Tris buffer (50 mM, pH 7.0). Raw ellipticity was converted to molar ellipticity, [Θ], from which the fraction of helical populations was determined as previously described. For the experiments in the presence of each protein (repeated three times), the same concentration used in the fluorescence experiments was used, and the experimental set-up was the same as described above for the isolated peptides.

Series [5] is described as follows: TFE titration followed by far-UV CD (disordered-helical two-state equilibrium). Type of series: physicochemical. On the procedure:
For experiments in the presence of TFE, the same set of experimental parameters was used. Cosolvent concentrations were indicated in percentage of volume (%). […] The peptide concentration for these experiments was 20 µM.

Series [6] deals with Staphylococcus aureus CECT59. In kind it is cell-based. The conditions noted are these: S. aureus CECT59, two-fold broth microdilution (CLSI), MH broth, 24 h, 37 °C; triplicate (sd = 0); highest concentration tested 400 µM. On the procedure: The CECT59 strain of the Gram-positive bacteria Staphylococcus aureus from the Spanish Type Culture Collection (Colección Española de Cultivos Tipo, CECT, Universitat de Valencia, Spain) was used for determining its sensitivity to the HPr peptides studied in this work. The MIC for each peptide was determined by the two-fold broth microdilution method according to the Clinical and Laboratory Standards Institute (CLSI) guidelines, with some modifications as previously described. For this testing procedure, a bacteria colony previously grown in MH agar plates was isolated and incubated in MH broth at 37 °C overnight to prepare the bacteria inoculum to be used in each assay. Then, the bacteria suspensions were adjusted to a 100× dilution of an 0.5 McFarland turbidity standard in MH broth and incubated with different concentrations of each peptide in round-bottom 96-well polystyrene plates (Deltalab S.L., Rubí, Spain) (50 μL/well) for 24 h at 37 °C. The peptide concentrations employed comprised two-fold dilutions starting at either 120, 160, or 400 µM, depending on the experiment. […] All assays were performed in triplicate.

Series [7] deals with T1, Rsd^ec. The experiment in a line: Fluorescence titration, peptide/Rsd^ec binding. As for the experimental part:
as §2, §3

[8] abbreviates: TFE titration by far-UV CD, 20 µM peptide, two-state fit, fitting errors.

Sequence of EIN^sc (Q9KZP1 1-230): as the sequence (Q9KZP1 1-230) above

Take “Ac-GWAEGLHARPASIFVRAATATG-NH2 [Wild-type]”: the figures for the dissociation constant (Kd) (in series [1]; at EIN^sc; at Rsd^ec [7]) were 2.3 ± 0.4 µM, 10 µM and 5 µM, respectively. Moreover, the “ΔH, EIN^sc” value in series [1] (ITC, 25 °C, 50 mM Tris pH 7.0) is -0.8 ± 0.4 kcal/mol. Besides, on Rsd^ec [2], the “ΔH, Rsd^ec” value stood at 1.3 ± 0.4 kcal/mol. Further, the helical population entry in series [3] is on record as “about 7%”. Also, the “[Θ]^222 (value in parentheses)” value in series [4] (50 mM Tris pH 7.0) is recorded as −612.44 deg cm^2 dmol^−1. Also, in series [4] (50 mM Tris pH 7.0, from [Θ]^222 assuming −39,500 deg cm^2 dmol^−1 for a fully formed α-helix), the “Helicity (%)” value is recorded as 1.6%. Besides, the “[TFE]1/2” value in series [5] (setting [8]) is reported as 23.2 ± 0.5 % (v/v). Moreover, the m in series [5] (setting [8]) is recorded as 166 ± 23 cal/mol (% (v/v)). Also, in series [5] (from ∆G^water assuming a two-state conformational equilibrium), the “percentage of helical population (in parentheses)” value is listed as 0.10%. The “∆G^water” value in series [5] (product of m- and [TFE]1/2 values, error propagation) is recorded as 3.8 ± 0.5 kcal/mol. For the same substance, the MIC (usually the least concentration at which growth counts as inhibited) in series [6] amounted to 40 µM.
